Measurements: patent US20100099561A1, “HETEROBICYCLIC ALKYLTHIO-BRIDGED ISOXAZOLINES” (E.I. DU PONT DE NEMOURS AND COMPANY, priority 2008, published 2010)

What was measured:
Format in all cases: in vivo
[1] = system: barnyardgrass (Echinochloa crus-galli); test: Test B flooded paddy test, barnyardgrass; conditions: Flood
How it was run: (§1)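 2-leaf plants; pots flooded 3 cm above soil; compound added to paddy water; depth maintained. Greenhouse 13–15 d. Visual rating vs controls, 0 (no effect) to 100 (complete control); dash = no result.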

rice (Oryza sativa) = test: Test B flooded paddy test, rice; conditions: Flood, scale 0 to 100
How it was run: as §1

[2] = system: ducksalad (Heteranthera limosa); test: Test B flooded paddy test, ducksalad; conditions: Flood, scale 0 to 100
How it was run: as §1

corn (Zea mays) [3] = test: Test A postemergence, corn; conditions: 0 to 100 scale (0 no effect, 100 complete control)
How it was run: (§2)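 Pre: directed soil spray after sowing in loam/sand. Post: seedlings at 1–2 leaf stage, 2–10 cm. Vehicle: non-phytotoxic solvent mix + surfactant. Greenhouse ~10 d; visual injury 0–100 vs untreated controls.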

[4] = system: velvetleaf (Abutilon theophrasti); test: Test A preemergence, velvetleaf; conditions: 0 to 100 scale (0 no effect, 100 complete control)
How it was run: as §2

corn (Zea mays) [5] = test: Test A preemergence, corn; conditions: 0 to 100 scale (0 no effect, 100 complete control)
How it was run: as §2

[6] = system: velvetleaf (Abutilon theophrasti); test: Test A postemergence, velvetleaf; conditions: 0 to 100 scale (0 no effect, 100 complete control)
How it was run: as §2

[7] = system: barnyardgrass (Echinochloa crus-galli); test: Test A postemergence, barnyardgrass; conditions: 0 to 100 scale (0 no effect, 100 complete control)
How it was run: as §2

[8] = system: barnyardgrass (Echinochloa crus-galli); test: Test A preemergence, barnyardgrass; conditions: 0 to 100 scale (0 no effect, 100 complete control)
How it was run: as §2

[9] = system: morningglory (Ipomoea spp.); test: Test A postemergence, morningglory; conditions: 0 to 100 scale (0 no effect, 100 complete control)
How it was run: as §2

[10] = system: giant foxtail (Setaria faberi); test: Test A preemergence, giant foxtail; conditions: 0 to 100 scale (0 no effect, 100 complete control)
How it was run: as §2

[11] = system: wheat (Triticum aestivum); test: Test A postemergence, wheat; conditions: 0 to 100 scale (0 no effect, 100 complete control)
How it was run: as §2

[12] = system: pigweed (Amaranthus retroflexus); test: Test A preemergence, pigweed; conditions: 0 to 100 scale (0 no effect, 100 complete control)
How it was run: as §2

[13] = system: umbrella sedge (Cyperus difformis); test: Test B flooded paddy test, umbrella sedge; conditions: Flood, scale 0 to 100
How it was run: as §1

[14] = system: pigweed (Amaranthus retroflexus); test: Test A postemergence, pigweed; conditions: 0 to 100 scale (0 no effect, 100 complete control)
How it was run: as §2

[15] = system: large crabgrass (Digitaria sanguinalis); test: Test A postemergence, large crabgrass; conditions: 0 to 100 scale (0 no effect, 100 complete control)
How it was run: as §2

[16] = system: morningglory (Ipomoea spp.); test: Test A preemergence, morningglory; conditions: 0 to 100 scale (0 no effect, 100 complete control)
How it was run: as §2

[17] = system: wheat (Triticum aestivum); test: Test A preemergence, wheat; conditions: 0 to 100 scale (0 no effect, 100 complete control)
How it was run: as §2

[18] = system: giant foxtail (Setaria faberi); test: Test A postemergence, giant foxtail; conditions: 0 to 100 scale (0 no effect, 100 complete control)
How it was run: as §2

[19] = system: large crabgrass (Digitaria sanguinalis); test: Test A preemergence, large crabgrass; conditions: 0 to 100 scale (0 no effect, 100 complete control)
How it was run: as §2

CC1(C)CC(S(=O)(=O)Cc2c(C(F)(F)C(F)(F)F)nc3n(c2=O)CCCO3)=NO1 [Compound 55]
Plant response rating, Barnyardgrass ([1]; 31 g ai/ha, scale 0 to 100): 0
Plant response rating, Barnyardgrass ([1]; 62 g ai/ha, scale 0 to 100): 0
Plant response rating, Barnyardgrass ([1]; 125 g ai/ha, scale 0 to 100): 0
Plant response rating, Barnyardgrass ([1]; 250 g ai/ha, scale 0 to 100 (0 no effect, 100 complete control)): 0
Plant response rating, Rice (rice (Oryza sativa); 31 g ai/ha): 0
Plant response rating, Rice (rice (Oryza sativa); 62 g ai/ha): 0
Plant response rating, Rice (rice (Oryza sativa); 125 g ai/ha): 0
Plant response rating, Rice (rice (Oryza sativa); 250 g ai/ha): 0
Plant response rating, Ducksalad ([2]; 31 g ai/ha): 0
Plant response rating, Ducksalad ([2]; 62 g ai/ha): 0
Plant response rating, Ducksalad ([2]; 125 g ai/ha): 0
Plant response rating, Ducksalad ([2]; 250 g ai/ha): 0
Plant response rating, Corn (corn (Zea mays) [3]; 125 g ai/ha): 0
Plant response rating, Corn (corn (Zea mays) [3]; 500 g ai/ha): 0
Plant response rating, Velvetleaf ([4]; 125 g ai/ha): 0
Plant response rating, Velvetleaf ([4]; 500 g ai/ha): 30
Plant response rating, Corn (corn (Zea mays) [5]; 125 g ai/ha): 0
Plant response rating, Corn (corn (Zea mays) [5]; 500 g ai/ha): 0
Plant response rating, Velvetleaf ([6]; 125 g ai/ha): 0
Plant response rating, Velvetleaf ([6]; 500 g ai/ha): 30
Plant response rating, Barnyardgrass ([7]; 125 g ai/ha): 70
Plant response rating, Barnyardgrass ([7]; 500 g ai/ha): 90
Plant response rating, Barnyardgrass ([8]; 125 g ai/ha): 50
Plant response rating, Barnyardgrass ([8]; 500 g ai/ha): 80
Plant response rating, Morningglory ([9]; 125 g ai/ha): 10
Plant response rating, Morningglory ([9]; 500 g ai/ha): 20
Plant response rating, Foxtail, Giant ([10]; 125 g ai/ha): 80
Plant response rating, Foxtail, Giant ([10]; 500 g ai/ha): 90
Plant response rating, Wheat ([11]; 125 g ai/ha): 0
Plant response rating, Wheat ([11]; 500 g ai/ha): 30
Plant response rating, Pigweed ([12]; 125 g ai/ha): 0
Plant response rating, Pigweed ([12]; 500 g ai/ha): 40
Plant response rating, Sedge, Umbrella ([13]; 31 g ai/ha): 0
Plant response rating, Sedge, Umbrella ([13]; 62 g ai/ha): 0
Plant response rating, Sedge, Umbrella ([13]; 125 g ai/ha): 0
Plant response rating, Sedge, Umbrella ([13]; 250 g ai/ha): 0
Plant response rating, Pigweed ([14]; 125 g ai/ha): 0
Plant response rating, Pigweed ([14]; 500 g ai/ha): 10
Plant response rating, Crabgrass, Large ([15]; 125 g ai/ha): 30
Plant response rating, Crabgrass, Large ([15]; 500 g ai/ha): 70
Plant response rating, Morningglory ([16]; 125 g ai/ha): 0
Plant response rating, Morningglory ([16]; 500 g ai/ha): 50
Plant response rating, Wheat ([17]; 125 g ai/ha): 0
Plant response rating, Wheat ([17]; 500 g ai/ha): 20
Plant response rating, Foxtail, Giant ([18]; 125 g ai/ha): 70
Plant response rating, Foxtail, Giant ([18]; 500 g ai/ha): 80
Plant response rating, Crabgrass, Large ([19]; 125 g ai/ha): 0
Plant response rating, Crabgrass, Large ([19]; 500 g ai/ha): 90
